Columns and labels:
[1] = target: T1, Solute carrier family 22 member 12 (Homo sapiens, UniProt Q96S37); test: Inhibition of human C-terminal eGFP-tagged URAT1 long isoform expressed in CHO cells assessed as decrease in [14C]-uric acid uptake preincubated for 15 mins followed by [14C]-uric acid addition and incubated in dark for 3 hrs by scintillation counting method; assay type: cell-based
T1 sequence (Q96S37 whole entry): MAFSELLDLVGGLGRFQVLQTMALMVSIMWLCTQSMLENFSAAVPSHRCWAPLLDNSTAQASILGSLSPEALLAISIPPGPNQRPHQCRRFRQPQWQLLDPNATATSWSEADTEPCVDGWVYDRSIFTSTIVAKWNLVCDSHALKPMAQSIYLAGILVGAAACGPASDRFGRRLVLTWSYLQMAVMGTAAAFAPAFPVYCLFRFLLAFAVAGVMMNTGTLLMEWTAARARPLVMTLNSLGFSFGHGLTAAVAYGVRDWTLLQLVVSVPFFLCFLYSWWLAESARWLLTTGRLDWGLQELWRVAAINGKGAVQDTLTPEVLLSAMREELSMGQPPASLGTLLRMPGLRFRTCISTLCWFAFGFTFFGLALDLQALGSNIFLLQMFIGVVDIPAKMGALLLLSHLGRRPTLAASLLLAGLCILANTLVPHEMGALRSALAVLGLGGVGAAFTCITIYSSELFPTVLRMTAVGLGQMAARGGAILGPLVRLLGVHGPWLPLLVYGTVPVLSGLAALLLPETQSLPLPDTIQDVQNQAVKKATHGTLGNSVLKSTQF

[2] = Intrinsic clearance in human liver microsomes; assay type: ADME; details: read-out: CLH
[3] = Octanol-water partition co-efficient, log D of the compound by shake flask method; assay type: physicochemical
[4] = Dissociation constant, pKa of the compound; assay type: physicochemical
CYP2C9 = CYP2C9 (Homo sapiens, UniProt P11712); test: Inhibition of CYP2C9 (unknown origin) at 3 uM relative to control; assay type: ADME
Chain of CYP2C9 (P11712 whole entry): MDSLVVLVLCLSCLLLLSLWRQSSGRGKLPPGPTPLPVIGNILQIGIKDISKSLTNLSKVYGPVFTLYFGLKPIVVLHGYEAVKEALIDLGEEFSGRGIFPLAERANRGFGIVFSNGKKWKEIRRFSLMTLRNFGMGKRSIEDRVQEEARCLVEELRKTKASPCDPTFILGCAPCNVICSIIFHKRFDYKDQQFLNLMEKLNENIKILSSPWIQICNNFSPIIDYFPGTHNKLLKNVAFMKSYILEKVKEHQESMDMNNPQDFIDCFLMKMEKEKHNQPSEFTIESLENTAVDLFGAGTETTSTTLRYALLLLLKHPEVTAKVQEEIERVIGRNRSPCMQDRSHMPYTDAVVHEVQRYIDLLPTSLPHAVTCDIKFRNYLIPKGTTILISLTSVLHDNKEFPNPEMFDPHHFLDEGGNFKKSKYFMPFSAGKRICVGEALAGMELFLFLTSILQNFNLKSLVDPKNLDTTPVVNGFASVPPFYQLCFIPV

Question: With N#Cc1ccc(Cl)c(NS(=O)(=O)c2ccccc2C(F)(F)F)c1 as the molecule, how does the IC50 [1] read?
Answer: Its IC50 is 71 nM.

Question: With N#Cc1cc(NS(=O)(=O)c2ccccc2C(F)(F)F)ccc1Cl as the molecule, how does the microsomal CLint [2] read?
Answer: The microsomal CLint was < 12 µL/min/mg.

Question: And the logD [3]?
Answer: Its logD is 2.3.

Question: And the pKa [4]?
Answer: The pKa was 5.8.

Question: And the inhibition at 3 µM (CYP2C9)?
Answer: The inhibition at 3 µM was 76%.

Question: What about the IC50 [1] of the same molecule?
Answer: Its IC50 is 18 nM.

Question: Which IC50 [1] does the source give for N#Cc1cc(NS(=O)(=O)c2ccccc2Cl)ccc1Cl here?
Answer: The IC50 was 81 nM.

Question: With N#Cc1cc(NS(=O)(=O)c2ccccc2C#N)ccc1Cl as the molecule, how does the IC50 [1] read?
Answer: Its IC50 is 127 nM.

Question: Which IC50 [1] does the source give for Cc1ccc(NS(=O)(=O)c2ccccc2C(F)(F)F)cn1 here?
Answer: The IC50 was 1030 nM.

Question: For Cc1ccccc1S(=O)(=O)Nc1ccc(Cl)c(C#N)c1, which IC50 [1] is on record?
Answer: Its IC50 is 183 nM.

Question: Which microsomal CLint [2] does the source give for COc1cncc(NS(=O)(=O)c2ccccc2C(F)(F)F)c1 here?
Answer: Its microsomal CLint is < 8 µL/min/mg.

Question: What about the logD [3] of the same molecule?
Answer: Its logD is 1.3.

Question: What about the inhibition at 3 µM (CYP2C9) of the same molecule?
Answer: Its inhibition at 3 µM is 18%.

Question: And the IC50 [1]?
Answer: The IC50 was 89 nM.

Question: With N#Cc1ccc(NS(=O)(=O)c2ccccc2C(F)(F)F)cc1C(F)(F)F as the molecule, how does the microsomal CLint [2] read?
Answer: The microsomal CLint was < 12 µL/min/mg.

Question: And the logD [3]?
Answer: Its logD is 1.8.

Question: What about the inhibition at 3 µM (CYP2C9) of the same molecule?
Answer: Its inhibition at 3 µM is 61%.

Question: What about the IC50 [1] of the same molecule?
Answer: Its IC50 is 29 nM.

Question: With O=S(=O)(Nc1cccc(OC(F)(F)F)c1)c1ccccc1C(F)(F)F as the molecule, how does the microsomal CLint [2] read?
Answer: The microsomal CLint was 55 µL/min/mg.

Question: And the logD [3]?
Answer: Its logD is 3.9.

Question: What about the inhibition at 3 µM (CYP2C9) of the same molecule?
Answer: The inhibition at 3 µM was 81%.

Question: And the IC50 [1]?
Answer: The IC50 was 1480 nM.

Question: Which IC50 [1] does the source give for N#Cc1ccc(NS(=O)(=O)c2ccccc2C(F)(F)F)cc1 here?
Answer: Its IC50 is 119 nM.

Question: With Cc1ccncc1NS(=O)(=O)c1ccccc1C(F)(F)F as the molecule, how does the IC50 [1] read?
Answer: Its IC50 is > 10000 nM.

Question: Which IC50 [1] does the source give for O=S(=O)(Nc1ccc(F)c(C(F)(F)F)c1)c1ccccc1C(F)(F)F here?
Answer: The IC50 was 484 nM.

Question: For Cc1ccccc1S(=O)(=O)Nc1ccc(C#N)c(Cl)c1, which IC50 [1] is on record?
Answer: Its IC50 is 89 nM.

Question: What does the source list for O=S(=O)(Nc1cncc(Br)c1)c1ccccc1C(F)(F)F?
Answer: microsomal CLint [2]: 14 µL/min/mg; logD [3]: 1.6; pKa [4]: 5.3; inhibition at 3 µM (CYP2C9): 38%; IC50 [1]: 35 nM

Question: For N#Cc1ccccc1NS(=O)(=O)c1ccccc1C(F)(F)F, which microsomal CLint [2] is on record?
Answer: The microsomal CLint was 19 µL/min/mg.

Question: What about the logD [3] of the same molecule?
Answer: Its logD is 0.8.

Question: And the inhibition at 3 µM (CYP2C9)?
Answer: Its inhibition at 3 µM is 11%.

Question: What about the IC50 [1] of the same molecule?
Answer: Its IC50 is 616 nM.

Question: Which IC50 [1] does the source give for N#Cc1ccc(NS(=O)(=O)c2ccccc2C#N)cc1Cl here?
Answer: The IC50 was 156 nM.

Question: For COc1ccncc1NS(=O)(=O)c1ccccc1C(F)(F)F, which IC50 [1] is on record?
Answer: The IC50 was > 10000 nM.

Question: Which IC50 [1] does the source give for COc1ncccc1NS(=O)(=O)c1ccccc1C(F)(F)F here?
Answer: The IC50 was 3920 nM.

Question: For O=S(=O)(Nc1ccccc1F)c1ccccc1C(F)(F)F, which logD [3] is on record?
Answer: Its logD is 2.4.

Question: What about the inhibition at 3 µM (CYP2C9) of the same molecule?
Answer: Its inhibition at 3 µM is 15%.

Question: And the IC50 [1]?
Answer: Its IC50 is 3610 nM.

Question: Which results are given for N#Cc1cccc(NS(=O)(=O)c2ccccc2C(F)(F)F)c1?
Answer: microsomal CLint [2]: < 8 µL/min/mg; logD [3]: 1.9; inhibition at 3 µM (CYP2C9): 28%; IC50 [1]: 166 nM

Question: For N#Cc1ccc(NS(=O)(=O)c2ccccc2C(F)(F)F)cc1Cl, which microsomal CLint [2] is on record?
Answer: Its microsomal CLint is 11 µL/min/mg.

Question: And the logD [3]?
Answer: The logD was 1.8.

Question: And the pKa [4]?
Answer: Its pKa is 5.1.

Question: And the inhibition at 3 µM (CYP2C9)?
Answer: Its inhibition at 3 µM is 92%.

Question: What about the IC50 [1] of the same molecule?
Answer: The IC50 was 18 nM.

Question: With O=S(=O)(Nc1ccccc1OC(F)F)c1ccccc1C(F)(F)F as the molecule, how does the IC50 [1] read?
Answer: The IC50 was 1970 nM.

Question: For N#Cc1ccc(Cl)cc1NS(=O)(=O)c1ccccc1C(F)(F)F, which IC50 [1] is on record?
Answer: The IC50 was 187 nM.

Question: Which IC50 [1] does the source give for N#Cc1cc(Cl)ccc1NS(=O)(=O)c1ccccc1C(F)(F)F here?
Answer: Its IC50 is 111 nM.

Question: With N#Cc1ccc(NS(=O)(=O)c2ccccc2Cl)cc1Cl as the molecule, how does the IC50 [1] read?
Answer: The IC50 was 81 nM.

Question: For Cc1cncc(NS(=O)(=O)c2ccccc2C(F)(F)F)c1, which IC50 [1] is on record?
Answer: The IC50 was 185 nM.

Question: Which microsomal CLint [2] does the source give for N#Cc1cc(NS(=O)(=O)c2ccccc2C(F)(F)F)ccc1C(F)(F)F here?
Answer: The microsomal CLint was 18 µL/min/mg.

Question: And the logD [3]?
Answer: The logD was 2.

Question: And the pKa [4]?
Answer: Its pKa is 5.1.

Question: And the inhibition at 3 µM (CYP2C9)?
Answer: Its inhibition at 3 µM is 86%.

Question: What about the IC50 [1] of the same molecule?
Answer: Its IC50 is 32 nM.

Question: For O=S(=O)(Nc1ccc(F)c(F)c1)c1ccccc1C(F)(F)F, which IC50 [1] is on record?
Answer: Its IC50 is 1970 nM.

Question: With O=S(=O)(Nc1cnc2ccccc2c1)c1ccccc1C(F)(F)F as the molecule, how does the microsomal CLint [2] read?
Answer: Its microsomal CLint is 153 µL/min/mg.

Question: And the logD [3]?
Answer: The logD was 2.5.

Question: And the inhibition at 3 µM (CYP2C9)?
Answer: Its inhibition at 3 µM is 39%.

Question: What about the IC50 [1] of the same molecule?
Answer: The IC50 was 7 nM.

Question: With N#Cc1ccc(NS(=O)(=O)c2ccccc2C(F)(F)F)c(Cl)c1 as the molecule, how does the microsomal CLint [2] read?
Answer: The microsomal CLint was 14 µL/min/mg.

Question: What about the logD [3] of the same molecule?
Answer: Its logD is 1.1.

Question: And the inhibition at 3 µM (CYP2C9)?
Answer: The inhibition at 3 µM was 82%.

Question: What about the IC50 [1] of the same molecule?
Answer: The IC50 was 39 nM.

Question: With COc1ccc(NS(=O)(=O)c2ccccc2C(F)(F)F)cn1 as the molecule, how does the IC50 [1] read?
Answer: The IC50 was 1170 nM.

Question: Which results are given for N#Cc1c(Cl)cccc1NS(=O)(=O)c1ccccc1C(F)(F)F?
Answer: microsomal CLint [2]: 30 µL/min/mg; logD [3]: 1; inhibition at 3 µM (CYP2C9): 86%; IC50 [1]: 23 nM

Question: With N#Cc1cc(NS(=O)(=O)c2ccccc2OC(F)(F)F)ccc1Cl as the molecule, how does the IC50 [1] read?
Answer: Its IC50 is 20 nM.

Question: Which IC50 [1] does the source give for COc1ccccc1S(=O)(=O)Nc1ccc(C#N)c(Cl)c1 here?
Answer: The IC50 was 199 nM.

Reference: ChEMBL document CHEMBL3853265 (Medchemcomm, 2016)
